# Test results as given in US20210128667A1, “IMMUNOPROTEASOME INHIBITORS AND IMMUNOSUPPRESSIVE AGENT IN THE TREATMENT OF AUTOIMMUNE DISORDERS” (KEZAR LIFE SCIENCES, priority 2017, published 2021).
# Key:
# immune cell types = assay: In vitro immune cell function (cytokine production, T-cell subsets, plasma cells, autoantibodies); type: cell-based
# immunoproteasome [1] = target: T1, immunoproteasome (Homo sapiens, UniProt P28062+P28065+P40306); assay: Immunoproteasome inhibition in human cells in vitro; type: cell-based
# T1 construct: endogenous in cells
# immunoproteasome [2] = assay: Immunoproteasome inhibition in blood and tissues after administration to monkeys; type: in vivo; conditions: administered to monkeys
# non-proteasomal targets = assay: Broad diversity panel of biochemical assays (110 receptor/ligand and enzyme assays)
# immunoproteasome [3] = target: T2, immunoproteasome (Rattus norvegicus, UniProt P28064+P28077+Q4KM35); assay: Immunoproteasome inhibition in blood and tissues after administration to rats; type: in vivo; conditions: administered to rats
# T2 construct: from tissue; host or cells: blood and tissues of dosed rats
# [4] = target: LMP7 subunit of the immunoproteasome (Homo sapiens, UniProt P28062); assay: In vitro inhibition of immunoproteasome subunits; type: biochemical
# [5] = tested on: NZB/WF1 mice with established nephritis; assay: NZB/W F1 mouse model of established nephritis: proteinuria (urine dipsticks) and survival; type: in vivo; conditions: 2.5 mg/kg KZR-616 SC QW, 30 mg/kg QDx7 PO MMF, in comparison with the untreated mice
# Protocol: NZB/W Fl mice were purchased from Jackson Laboratories. All mice were housed in the animal facility at Kezar Life Sciences. All experiment protocols were reviewed and approved by the Kezar Committee on Animal Resources. NZB/WF1 mice with established nephritis (24 weeks of age with duratble proteinuria ≥1+ proteinuria) were treated with vehicle alone, 2.5 mg/kg KZR-616 SC QW, 30 mg/kg QDx7 PO MMF or the combination of 2.5 mg/kg KZR-616 SC QW KZR-616 and 30 mg/kg QDx7 PO MMF. Proteinuria was monitored weekly once with urine dipsticks (Uristix by Bayer) and survival was observed.
# To investigate immunoproteasome inhibition combined with the standard of care treatment MMF, NZB/w mice were administered vehicle alone, 2.5 mg/kg KZR-616 SC QW, 30 mg/kg QDx7 PO MMF or the combination of KZR-616 and MMF.
# [6] = in vivo; cited from earlier work
# [7] = tested on: patients with refractory SLE and LN; conditions: patients who had failed standard immunosuppressive therapies; cited from earlier work
# [8] = tested on: animal models of autoimmune disorders; conditions: animal models including RA and SLE; cited from earlier work
# immune effector cells [9] = conditions: cited from earlier work
# immune effector cells [10] = conditions: cited from earlier work; remark: listed apart in the source
# immunoproteasome [11] = target: immunoproteasome (Mus musculus, UniProt O35955+P28063+P28076); conditions: upon administration to mice; cited from earlier work
# [12] = tested on: mouse models of multiple sclerosis and SLE; conditions: in vivo; cited from earlier work
# mouse models of RA = conditions: doses one tenth of the maximum tolerated dose (MTD); cited from earlier work
structure (smiles),measurement,setting,value
COc1ccc([C@@H](O)[C@H](NC(=O)[C@H](C)NC(=O)CN2CCOCC2)C(=O)N[C@@H](CC2=CCCC2)C(=O)[C@@]2(C)CO2)cc1 [KZR-616],activity of inflammatory T-helper cell subsets,immune cell types,reduces the activity of inflammatory T-helper cell subsets
same,number of regulatory T-cells,immune cell types,increases the number of regulatory T-cells
same,plasma cell formation and autoantibody production,immune cell types,blocks plasma cell formation and autoantibody production
same,cytokine production,immune cell types; multiple immune cell types,blocks cytokine production across multiple immune cell types
same,inhibition of the immunoproteasome,immunoproteasome [1],potent and selective inhibition of the immunoproteasome
same,inhibition of the immunoproteasome in blood and tissues,immunoproteasome [2],potent and selective inhibition in blood and tissues
same,inhibition of non-proteasomal targets,non-proteasomal targets,did not inhibit any non-proteasomal targets
same,inhibition of the immunoproteasome in blood and tissues,immunoproteasome [3],potent and selective inhibition in blood and tissues
same,mechanism of inhibition of immunoproteasome subunits,[4],irreversible mechanism
same,inhibition of the LMP7 subunit,"[4]; in vitro, selectivity relative to(35)",potent and selective inhibition
same,level of proteinuria,[5],significantly reduced the level of proteinuria
same,survival,[5],increased survival
CC(C)C[C@H](NC(=O)[C@H](Cc1ccccc1)NC(=O)c1cnccn1)B(O)O [bortezomib],peripheral neuropathy,[6],dose limiting side effect of peripheral neuropathy
same,clinical activity,[7],shown to have clinical activity
same,anti-inflammatory activity,[8],demonstrated anti-inflammatory activity
same,cytokine release,immune effector cells [9],blocks cytokine release from immune effector cells
CC(C)C[C@H](NC(=O)[C@H](CCc1ccccc1)NC(=O)CN1CCOCC1)C(=O)N[C@@H](Cc1ccccc1)C(=O)N[C@@H](CC(C)C)C(=O)[C@@]1(C)CO1 [carfilzomib],peripheral neuropathy,[6],Peripheral neuropathy is not induced
COc1ccc(C[C@H](NC(=O)[C@H](C)NC(=O)CN2CCOCC2)C(=O)N[C@@H](Cc2ccccc2)C(=O)[C@]2(C)CO2)cc1 [ONX 0914],autoantibody formation,immune effector cells [10],blocked autoantibody formation
same,number and activity of inflammatory T-cell subsets such as Th1 and Th17,immune effector cells [10],reduced the number and activity of inflammatory T-cell subsets
same,number of regulatory T-cells (Treg),immune effector cells [10],increased the number of regulatory T-cells
same,cytokine production,immune effector cells [10]; immune effector cells,inhibited cytokine production in immune effector cells
same,inhibition of the immunoproteasome,immunoproteasome [11],selectively inhibits the immunoproteasome
same,activity and tolerability compared with bortezomib,[12],equivalent activity but better tolerability than bortezomib
same,therapeutic activity,[12],therapeutically active
same,"joint inflammation, cytokine production and joint damage",mouse models of RA,"prevent joint-specific inflammation, reduce cytokine production, and ameliorate joint damage"
"COc1c(C)c2c(c(O)c1C/C=C(\C)CCC(=O)OCCN1CCOCC1)C(=O)OC2 [MMF, mycophenolate mofetil]",level of proteinuria,[5],significantly reduced the level of proteinuria
same,survival,[5],increased survival
